Experimental data published in PubChem BioAssay (NCI).
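Assay format: 96-well plates, 48-hour exposure. GI50 = concentration required for 50% inhibition of growth. Definition used: TGI = concentration required for complete inhibition of growth.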

Columns and labels:
Assay in all cases: NCI anticancer screen, dose series, 48 h
[1] = tested on: OVCAR-8 ovarian
[2] = tested on: NCI/ADR-RES ovarian
[3] = tested on: RXF 393 renal
[4] = tested on: BT-549 breast
[5] = tested on: SF-295 CNS
[6] = tested on: RPMI-8226 leukemia
[7] = tested on: K-562 leukemia
[8] = tested on: DU-145 prostate
[9] = tested on: SF-268 CNS
[10] = tested on: UACC-62 melanoma
[11] = tested on: SNB-19 CNS
[12] = tested on: HT29 colon
[13] = tested on: HL-60(TB) leukemia
[14] = tested on: SK-OV-3 ovarian
[15] = tested on: SN12C renal
[16] = tested on: T-47D breast
[17] = tested on: MALME-3M melanoma
[18] = tested on: MDA-MB-435
[19] = tested on: SK-MEL-2 melanoma
[20] = tested on: IGROV1 ovarian
[21] = tested on: TK-10 renal
[22] = tested on: MCF7 breast
[23] = tested on: HS 578T breast
[24] = tested on: KM12 colon
[25] = tested on: OVCAR-5 ovarian
[26] = tested on: CCRF-CEM leukemia
[27] = tested on: HCC-2998 colon
[28] = tested on: LOX IMVI melanoma
[29] = tested on: SNB-75 CNS
[30] = tested on: OVCAR-4 ovarian
[31] = tested on: MDA-MB-231 breast
[32] = tested on: SF-539 CNS
[33] = tested on: NCI-H23 lung
[34] = tested on: SK-MEL-5 melanoma
[35] = tested on: CAKI-1 renal
[36] = tested on: SK-MEL-28 melanoma
[37] = tested on: U251 CNS
[38] = tested on: EKVX NSCLC
[39] = tested on: HOP-92 NSCLC
[40] = tested on: HOP-62 NSCLC
[41] = tested on: NCI-H460 lung
[42] = tested on: NCI-H522 lung
[43] = tested on: M14 melanoma
[44] = tested on: SW-620 colon
[45] = tested on: COLO 205 colon
[46] = tested on: ACHN renal
[47] = tested on: PC-3 prostate
[48] = tested on: HCT-15 colon
[49] = tested on: 786-0 renal
[50] = tested on: UO-31 renal
[51] = tested on: NCI-H226 lung
[52] = tested on: A549 NSCLC
[53] = tested on: HCT-116 colon
[54] = tested on: UACC-257 melanoma
[55] = tested on: OVCAR-3 ovarian
[56] = tested on: MOLT-4 leukemia
[57] = tested on: A498 renal

CCOC(=O)CCC(NC(=O)c1ccc(Sc2nc3cc(N)cc(N)c3nc2-c2ccccc2)cc1)C(=O)OCC (configuration not stated)
GI50 [1]: 2.78 µM
TGI [1]: > 63 µM
GI50 [2]: 21.6 µM
TGI [2]: > 100 µM
GI50 [3]: 3 µM
TGI [3]: 19.4 µM
GI50 [4]: 2.3 µM
TGI [4]: 36.9 µM
GI50 [5]: 0.939 µM
TGI [5]: > 36.8 µM
GI50 [6]: 1.62 µM
TGI [6]: > 89.8 µM
TGI [7]: 24.5 µM
GI50 [8]: 38.2 µM
TGI [8]: > 100 µM
GI50 [9]: 2.18 µM
TGI [9]: > 66.6 µM
GI50 [10]: 1.03 µM
TGI [10]: > 62.4 µM
GI50 [11]: 4.77 µM
TGI [11]: > 100 µM
GI50 [12]: 0.755 µM
TGI [12]: > 100 µM
GI50 [13]: 0.298 µM
TGI [13]: > 100 µM
GI50 [14]: 2.83 µM
TGI [14]: 53 µM
GI50 [15]: 17.7 µM
TGI [15]: 44.5 µM
GI50 [16]: > 53.9 µM
TGI [16]: > 100 µM
GI50 [17]: 19.6 µM
TGI [17]: 37.2 µM
GI50 [18]: 11.1 µM
TGI [18]: 33.5 µM
GI50 [19]: 4.22 µM
TGI [19]: 72.4 µM
GI50 [20]: 6.91 µM
TGI [20]: > 100 µM
GI50 [21]: 22.4 µM
TGI [21]: > 100 µM
GI50 [22]: 0.626 µM
TGI [22]: > 100 µM
GI50 [23]: 10.2 µM
TGI [23]: > 87.1 µM
GI50 [24]: 2.19 µM
TGI [24]: > 86.6 µM
GI50 [25]: 60.5 µM
TGI [25]: > 100 µM
GI50 [26]: 1.31 µM
TGI [26]: > 100 µM
GI50 [27]: 4.73 µM
TGI [27]: 17 µM
GI50 [28]: 0.48 µM
TGI [28]: > 29.3 µM
GI50 [29]: 32.2 µM
TGI [29]: 63.8 µM
GI50 [30]: 2.28 µM
TGI [30]: > 73.2 µM
GI50 [31]: 7.96 µM
TGI [31]: 35.1 µM
GI50 [32]: 0.0926 µM
TGI [32]: 14.7 µM
GI50 [33]: 2.29 µM
TGI [33]: > 58 µM
GI50 [34]: 1.71 µM
TGI [34]: 5.55 µM
GI50 [35]: 2.03 µM
TGI [35]: > 41.6 µM
GI50 [36]: 0.884 µM
TGI [36]: 32 µM
GI50 [37]: 1.02 µM
TGI [37]: > 40.6 µM
GI50 [38]: 13.7 µM
TGI [38]: > 77.6 µM
GI50 [39]: 2.74 µM
TGI [39]: 46.2 µM
GI50 [40]: 2.23 µM
TGI [40]: 47.7 µM
GI50 [41]: 3.05 µM
TGI [41]: > 100 µM
GI50 [42]: 2.76 µM
GI50 [43]: 3.34 µM
GI50 [44]: 2.38 µM
TGI [44]: > 100 µM
GI50 [45]: 2.71 µM
GI50 [46]: 1.3 µM
TGI [46]: 33.9 µM
GI50 [47]: 2.61 µM
TGI [47]: > 100 µM
GI50 [48]: 1.8 µM
TGI [48]: > 65.6 µM
GI50 [49]: 4.72 µM
TGI [49]: > 100 µM
GI50 [50]: 4.78 µM
TGI [50]: > 100 µM
GI50 [51]: 0.97 µM
TGI [51]: > 65.9 µM
GI50 [52]: 2.9 µM
TGI [52]: > 100 µM
GI50 [53]: 1.3 µM
TGI [53]: > 100 µM
GI50 [54]: > 41.4 µM
TGI [54]: > 63.6 µM
GI50 [55]: 0.73 µM
TGI [55]: 2.88 µM
GI50 [56]: 0.726 µM
TGI [56]: > 100 µM

O=C(NC1CCCCC1)OCc1c(COC(=O)NC2CCCCC2)c(-c2ccc(Cl)c(Cl)c2)n2c1CCC2
GI50 [1]: 4.3 µM
TGI [1]: 32.3 µM
GI50 [2]: 4.24 µM
TGI [2]: 18.6 µM
GI50 [3]: 2.87 µM
TGI [3]: 9.36 µM
GI50 [4]: 3.53 µM
TGI [4]: 14.2 µM
GI50 [5]: 3.38 µM
TGI [5]: 29.1 µM
GI50 [6]: 4.55 µM
TGI [6]: 29 µM
GI50 [7]: 4.83 µM
TGI [7]: > 100 µM
GI50 [8]: 3.72 µM
TGI [8]: 20.9 µM
GI50 [9]: 3.79 µM
TGI [9]: 21.3 µM
GI50 [10]: 2.37 µM
TGI [10]: 12.9 µM
GI50 [11]: 5.79 µM
TGI [11]: 47.6 µM
GI50 [12]: 4.97 µM
TGI [12]: 71.4 µM
GI50 [13]: 2.24 µM
TGI [13]: > 100 µM
GI50 [14]: 2.58 µM
TGI [14]: 11.8 µM
GI50 [15]: 3.58 µM
TGI [15]: > 100 µM
GI50 [16]: 3.83 µM
TGI [16]: 19.5 µM
GI50 [17]: 5.92 µM
TGI [17]: 22.7 µM
GI50 [57]: 1.59 µM
TGI [57]: 3.32 µM
GI50 [18]: 8.23 µM
TGI [18]: 28.8 µM
GI50 [19]: 3.72 µM
TGI [19]: 12.7 µM
GI50 [20]: 5.62 µM
TGI [20]: > 100 µM
GI50 [21]: 3.72 µM
TGI [21]: 31.7 µM
GI50 [22]: 3.83 µM
TGI [22]: 27.9 µM
GI50 [23]: 3.72 µM
TGI [23]: 21.4 µM
GI50 [24]: 11.9 µM
TGI [24]: 29.3 µM
GI50 [25]: 5.19 µM
TGI [25]: 44.3 µM
GI50 [26]: 3.21 µM
TGI [26]: > 100 µM
GI50 [27]: 10.5 µM
TGI [27]: 23 µM
GI50 [28]: 2.98 µM
TGI [28]: 16.4 µM
GI50 [29]: 4.19 µM
TGI [29]: 25 µM
GI50 [30]: 3.42 µM
TGI [30]: 62.9 µM
GI50 [31]: 5.6 µM
TGI [31]: 50.7 µM
GI50 [32]: 3.06 µM
TGI [32]: 13.7 µM
GI50 [33]: 4.35 µM
TGI [33]: 21 µM
GI50 [34]: 7.06 µM
TGI [34]: 20.8 µM
GI50 [35]: 2.35 µM
TGI [35]: > 100 µM
GI50 [36]: 14.2 µM
TGI [36]: 45.3 µM
GI50 [37]: 4.43 µM
TGI [37]: 22.8 µM
GI50 [38]: 9.79 µM
TGI [38]: 94.4 µM
GI50 [39]: 1.94 µM
TGI [39]: 12.5 µM
GI50 [40]: 4.57 µM
TGI [40]: 21 µM
GI50 [41]: 1.19 µM
TGI [41]: 14.1 µM
GI50 [42]: 3.01 µM
TGI [42]: 11.8 µM
GI50 [43]: 4.17 µM
TGI [43]: 16.3 µM
GI50 [44]: 3.89 µM
TGI [44]: 22.6 µM
GI50 [45]: 4.2 µM
TGI [45]: 16.6 µM
GI50 [46]: 3.04 µM
TGI [46]: 41.6 µM
GI50 [47]: 6.05 µM
TGI [47]: 29.3 µM
GI50 [48]: 5.56 µM
TGI [48]: 43.2 µM
GI50 [49]: 3.26 µM
TGI [49]: 10.7 µM
GI50 [50]: 3.17 µM
TGI [50]: 16.2 µM
GI50 [51]: 2.51 µM
TGI [51]: 22.4 µM
GI50 [52]: 7.47 µM
TGI [52]: 94.2 µM
GI50 [53]: 3.72 µM
TGI [53]: 15.2 µM
GI50 [54]: 10.8 µM
TGI [54]: 37.4 µM
GI50 [55]: 5.32 µM
TGI [55]: 22.3 µM
GI50 [56]: 2.6 µM
TGI [56]: > 100 µM
